Laboratory results from US20200024278A1, “COMPOSITION COMPRISING ANTIBIOTIC COMPOUND AND AN HETEROCYCLIC COMPOUND AND THEIR USE IN PREVENTING OR TREATING BACTERIAL INFECTIONS” (MUTABILIS, priority 2016, published 2020).
Read-outs that look alike come from different tables or passages of the source.

Legend:
PAE 27853 = format: cell-based, P. aeruginosa; conditions: tntbc: Too numerous to be counted
Procedure: (§1) Method 4: Determination of the Spontaneous Mutation Frequency of the Compounds Alone and Combined with Antibiotics.
(§2) Bacterial isolates (Table 3) were grown overnight at 35° C. on TSA plates (Becton-Dickinson and Company) in ambient air. After 24 h of incubation, isolated bacterial colonies were added to cation-adjusted Mueller-Hinton broth (ca-MHB; Becton-Dickinson and Company) and cultured for approximately 6 h at 35° C. The pre-culture was stopped once bacteria have reached an OD600 nm of 0.5 for 200 μL. The bacterial suspension was centrifuged at 4000 rpm for 20 min. The supernatant was then discarded and the bacterial pellet was dissolved in ca-MHB to obtain 10^9 to 10^10 CFU/mL. Assays including Fosfomycin were supplemented with 25 μg/ml of Glucose-6-phosphate. 100 μL of the adjusted bacterial suspension were spread on agar plates containing different concentrations of the compounds of the present invention alone or combined with an antibacterial (Table 1). The plates were incubated for 24-48 h at 35° C. in ambient air. CFU were numerated on each agar plate containing compound. The number of resistant colonies obtained was divided by the starting inoculum to give the frequency of spontaneous resistance for a given incubation time (24 and 48 h).

PAE UFR48 = format: cell-based, P. aeruginosa; conditions: tntbc: Too numerous to be counted
Procedure: as §1, §2

PAE UFR90 = format: cell-based, P. aeruginosa; conditions: tntbc: Too numerous to be counted
Procedure: as §1, §2

KPN UFR68 = assay: MIC, broth microdilution (CLSI), substance alone or ATB combined with compound at 4 or 8 μg/mL; format: cell-based, K. pneumoniae; conditions: Klebsiella pneumoniae, substance alone
Outline: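 Per CLSI-M7-A7, MICs are determined in cation-adjusted Mueller-Hinton broth with a final inoculum of 5·10^5 CFU/mL. Plates incubate 16-20 h at 35° C in air and are read by eye. Fosfomycin assays carry 25 μg/ml glucose-6-phosphate.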

`NC[C@H]1C=C(c2cnco2)[C@@H]2CN1C(=O)N2OS(=O)(=O)[O-].O=C(O)C(F)(F)F.[Na+]` (relative stereo) [Example 1, sodium and 2,2,2-trifluoroacetate [trans-2-(azaniumylmethyl)-4-oxazol-5-yl-7-oxo-1,6-diazabicyclo[3.2.1]oct-3-en-6-yl] sulfate] was tested, and the “Frequency of spontaneous resistance” value (PAE 27853; single agent at 4.MIC) was “tntbc”, the “Frequency of spontaneous resistance” value (PAE 27853; single agent at 8.MIC) was “tntbc” and the “Frequency of spontaneous resistance” value (PAE UFR48; single agent at 4.MIC) was “tntbc”. For the same compound, the “Frequency of spontaneous resistance” value (PAE UFR48; single agent at 8.MIC) was “tntbc”, the “Frequency of spontaneous resistance” value (PAE UFR90; single agent at 4.MIC) was “tntbc” and the “Frequency of spontaneous resistance” value (PAE UFR90; single agent at 8.MIC) was “tntbc”.
For `NCC[C@H](O)C(=O)N[C@@H]1C[C@H](N)[C@@H](O[C@H]2O[C@H](CN)[C@@H](O)[C@H](O)[C@H]2O)[C@H](O)[C@H]1O[C@H]1O[C@H](CO)[C@@H](O)[C@H](N)[C@H]1O` [AN, Amikacin, reference compound], the “Frequency of spontaneous resistance” value (PAE 27853; single agent at 4.MIC) was 6.6E−07 and the “Frequency of spontaneous resistance” value (PAE 27853; single agent at 8.MIC) was 1.7E−07.
With `CO/N=C(\C(=O)N[C@@H]1C(=O)N2C(C(=O)[O-])=C(C[N+]3(C)CCCC3)CS[C@H]12)c1csc(N)n1` [FEP, Cefepime] the MIC (KPN UFR68) was > 256 µg/mL.
